From patent publication US9822117B2, “Pyridoindolobenz[b,d]azepine derivatives and uses thereof” (Daya Drug Discoveries, Inc., priority 2013, dated 2017)

Key:
[1] = target: Sigma σ2 receptor (Homo sapiens, UniProt Q5BJF2); assay: Receptor binding, σ2
[2] = test system: mechano-allodynia (paw withdrawal threshold); assay: Sciatic nerve chronic constriction injury (CCI) model of neuropathic pain; type: in vivo, mice
Method: DDD-028 was evaluated in chronic constriction injury (CCI) model of neuropathic pain in mice as described by Bennett et al., which is incorporated herein in its entirety. Two male CDI mice (weighing 25-30 g at the time of surgery) were used in this study. The hydrochloride salt of DDD-028 was dissolved in distilled water at 0.15 mg/mL and was administered to the mice to the final dose of 1.0 mg/kg (3.5 gmol/kg) for oral administration (via gavage) or 0.3 mg/kg (1.2 gmol/kg) for intrathecal administration (injection) at peak mechano-allodynia. Baseline PWT measurements (pre-surgery) of the left-hind paw of each animal were taken prior to sciatic nerve ligation. The mice were then anesthetized with 3% isoflurane/100% O2 inhalation, and maintained on 2% isoflurane/100% O2 for the duration of surgery. The left thigh was shaved, scrubbed with Nolvasan, and a small incision (1-1.5 cm in length) was made in the middle of the lateral aspect of the left thigh to expose the sciatic nerve. The nerve was loosely ligated around the entire circumference of the nerve at three distinct sites (spaced 1 mm apart) using silk sutures. The surgical site was closed with a single muscle suture and a skin clip. Peak mechano-allodynia generally develops 7 […]. After 7 days post-surgery, Paw Withdrawal Threshold (PWT, g) measurements were taken for each animal to determine the extent of mechanical allodynia. PWT's were measured at 15 min, 30 min, 60 min, 120 min, and 180 min following administration of the drugs or vehicle. […] DDD-028 had no effect on PWT in contralateral paws.

[3] = test system: mechanical allodynia (paw withdrawal threshold); assay: Spinal nerve ligation (SNL) model of neuropathic pain; type: in vivo, rats
Method: DDD-028 was evaluated in spinal nerve ligation (SNL) model of neuropathic pain in rats as described by Kim et al., which is incorporated herein in its entirety. DDD-028 was prepared as a suspension (1.0 mg/mL) in 5% PEG/5% Tween-80/90% saline; and pregabalin (reference compound, positive control) was prepared as a solution in normal saline (7.9 mg/mL). Both compounds were administered to the animals via oral gavage to a final dose of 5.0 mg/kg (17.4 gmol/kg) for DDD-028; and 39.0 mg/kg (250.2 gmol/kg) for pregabalin. Control animals received the vehicle (5% PEG/5% Tween-80/90% saline). Mechanical allodynia was measured by the up and down method using calibrated von Frey filaments (Linton Instruments). Eighteen male CD rats were used in this study. The animals were divided into three groups (vehicle, DDD-028, and pregabalin) containing 6 animals in each group. Baseline PWT measurements (pre-surgery) of the left-hind paw of each animal in the group were taken prior to spinal nerve ligation. Thereafter, the rats were anesthetized using 1-3% isofluorane, and the L5 spinal nerve was isolated and ligated tightly using silk thread. Peak mechano-allodynia generally develops by day 7 following surgery. After 7 days post-surgery, PWT measurements were taken for each animal to determine the extent of mechanical allodynia. Animals were then weighed, allocated to the treatment group, and administered the test compound, DDD-028, the reference compound, pregabalin, or the vehicle. PWT's were measured at 15 min, 30 min, 60 min, 120 min, and 180 min following administration of the drugs or vehicle.

[4] = test system: mechanical allodynia (percent weight distribution of left hind paw); assay: Complete Freund's Adjuvant (CFA)-induced model of inflammatory pain; type: in vivo; details: rats
Method: DDD-028 was evaluated in Complete Freund's Adjuvant (CFA)-induced model of inflammatory pain in rats as described by Stein et al., which is incorporated herein in its entirety. Fifteen male CD rats were used in this study. The animals were divided into three groups (vehicle, DDD-028, and indomethacin) containing 5 animals in each group. Baseline weight distribution of each animal in the groups was measured taken prior to CFA administration. Three readings were taken for each paw in each animal. Each reading was take over 3 seconds. Animals were lifted or the paws adjusted between each reading to ensure that animals were positioned correctly on the force pads. The percent weight bearing was calculated on the left leg for each reading. The mean of the three readings were then calculated for each animal. Following baseline measurements, the rats were anesthetized using 1-3% isofluorane, and were given subplantar injection of 0.1 mL of CFA into the left hind paw. Percent weight distributions of the left hind paws of each animal in the three groups were measured at 24 hours post-administration to determine the extent of mechanical allodynia. Animals were then weighed, allocated to the treatment group, and administered the test compound, DDD-028, the reference compound, indomethacin, or the vehicle. Weight distributions were measured at 15 min, 30 min, 60 min, and 120 min following administration of the drugs or vehicle.

Sequence of Sigma σ2 receptor (Q5BJF2 whole entry): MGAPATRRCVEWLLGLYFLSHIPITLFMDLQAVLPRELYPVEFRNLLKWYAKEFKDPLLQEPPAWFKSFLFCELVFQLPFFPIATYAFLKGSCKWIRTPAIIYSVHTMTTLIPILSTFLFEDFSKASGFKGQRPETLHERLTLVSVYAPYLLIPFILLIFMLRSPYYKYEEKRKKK

CN1CCc2c(c3cccc4c3n2CCc2ccccc2-4)C1 [Compound 13]
Ki [1]: 0.312 µM | effect on PWT in contralateral paws ([2]; mice, CCI, 1.0 mg/kg oral or 0.3 mg/kg intrathecal): no effect | time of maximal effect on mechano-allodynia ([2]; mice, CCI, hydrochloride salt, 1.0 mg/kg oral or 0.3 mg/kg intrathecal): ≤ 30 min | adverse effects ([3]; rat, in vivo, po, 5 mg/kg): No adverse effects were evident | time of maximal anti-nociceptive effect ([3]; rats, SNL, 5.0 mg/kg oral): about 60 minutes | potency relative to pregabalin ([3]; rats, SNL, DDD-028 5.0 mg/kg vs pregabalin […], oral): about 5 fold | adverse effects ([4]; oral): No adverse effects were evident | potency relative to indomethacin ([4]; oral): about 5 fold | time of maximal anti-nociceptive effect ([4]; oral): about 60 minutes

COc1ccc2c(c1)c(CC(=O)O)c(C)n2C(=O)c1ccc(Cl)cc1 [indomethacin, reference compound]
adverse effects ([4]; 2 hours post-administration): mild sedation

CC(C)C[C@H](CN)CC(=O)O [pregabalin, reference compound]
adverse effects ([2]; as printed in Example 5 (CCI), 1-3 hours post-administration): mild sedation
